Measurements taken from PMC7803423, “Identification of CTL Epitopes on Efflux Pumps of the ATP-Binding Cassette and the Major Facilitator Superfamily of Mycobacterium tuberculosis” (Journal of Immunology Research, 2021).

Tests used:
[1] = target: T1, HLA-A*0201 on T2A2 cells (Homo sapiens, UniProt P04439, D140Y/D185E/D98H/E176V/E277Q/G131W/G231S/I119V/I121R/I166T/I218V/L300P/L318F/N151K/N90K/P208A/P217A/Q86G/Q94H/R138H/R169H/T345S); assay: T2A2 cell binding affinity assay; settings: 50 μg/mL peptide + 3 μg/mL β2-M; for FI (fluorescence index): FI = [MFI of the peptide − MFI of the background]/[MFI of the background], T2A2 cells, 18 h; for MFI: T2A2 cells 1 × 10^6 cells/mL, 37°C 18 h, HLA-A2 antibody BB7.2, flow cytometry, background MFI 131
T1 construct: T2A2 cells (1 × 10^6 cells/mL) resuspended in serum-free IMDM medium were seeded in 24-well plates; endogenous in cells; host or cells: T2A2 cells

[2] = target: T2, peptide/HLA-A*0201 complex on T2A2 cells (Homo sapiens, UniProt P04439, D140Y/D185E/D98H/E176V/E277Q/G131W/G231S/I119V/I121R/I166T/I218V/L300P/L318F/N151K/N90K/P208A/P217A/Q86G/Q94H/R138H/R169H/T345S); assay: Peptide/HLA-A*0201 complex stability assay; assay type: binding; settings: time for loss of 50% of peptide/HLA-A*0201 complexes stabilized at 0 h, 50 μg/mL peptide, 18 h, brefeldin A 10 μg/mL 1 h, then 0, 2, 4, 6 h at 37°C, flow cytometry
T2 construct: endogenous in cells; host or cells: T2A2 cells
Procedure: The peptide/MHC complex stabilization assays were performed similarly. T2A2 cells were incubated with 50 μg/mL peptides and 3 μg/mL β2-M for 18 h. Then, 10 μg/mL brefeldin A (203729, Sigma, USA) were added in medium for another 1 h, subsequently washed by serum-free IMDM medium and incubated at 37°C for 0, 2, 4, and 6 h. Finally, cells were washed twice, stained with HLA-A2-PE-Cyanine 7 monoclonal antibody, and analyzed by flow cytometer (FACS Calibur, BD Bioscience, USA). DC50 was defined as an estimate of the time required for the loss of 50% of the peptide/HLA-A^∗0201 complexes stabilized at time 0 h.

[3] = system: peptide-pulsed T2A2 cells; assay: LDH cytotoxicity assay of peptide-induced CTLs in vitro; assay type: cell-based, human; settings: E : T ratio 50 : 1, CTLs from HLA-A*02+PPD+ donors, T2A2 cells pulsed with corresponding peptide, 4 h, n = 4
[4] = system: peptide-induced CD8+ T cells from HLA-A*02+ PPD+ / PPD− donors; assay: Intracellular cytokine IFN-γ staining (ICS) of peptide-induced CTLs in vitro; assay type: cell-based, human; settings: for CD8+ IFN-γ+ T cells, PPD+ donors compared with PBS-treated group: n = 3 donors; for CD8+ IFN-γ+ T cells, PPD+ donors compared with PPD− donors: n = 3 donors each, Student's t-test
[5] = system: IFN-γ; assay: Serum IFN-γ ELISA after peptide immunization; assay type: in vivo, HLA-A2.1/K^b transgenic mice; settings: serum day 11, n = 5
[6] = system: peptide-induced CTLs from HLA-A*02+PPD+ donors; assay: IFN-γ ELISPOT of peptide-induced CTLs in vitro; assay type: cell-based, human; settings: CTLs induced with peptide-loaded DCs from HLA-A*02+PPD+ donors, day 21; stimulators peptide-loaded T2A2 cells, 18 h
[7] = system: peptide-loaded T2A2 cells; assay: LDH lysis assay with CTLs from immunized mice; assay type: in vivo, HLA-A2.1/K^b transgenic mice; settings: peptide-loaded T2A2 target cells, n = 5
[8] = system: CD8+ T cells of splenic lymphocytes; assay: ICS assay of restimulated splenic lymphocytes from immunized mice; assay type: in vivo, HLA-A2.1/K^b transgenic mice; settings: ICS on day 7 of restimulation, n = 5
[9] = CFA day -14 then peptide in IFA

| Sequence | FI (fluorescence index) [1] | MFI [1] | DC50 [2] | further results |
| --- | --- | --- | --- | --- |
| ALCEKVTII [Rv1218c-p200, predicted HLA-A2-restricted 9-mer peptide … from MTB efflux pump antigen Rv1218c] | 1.75 | 366 | > 4 h | DC50 ([2]; listed as Rv1218c-P200): >4 h |
| ALDGLDLTV [Rv1218c-p24] | 3.32 | 569 | >4 h | lysis rate [3]: 88.6%; CD8+ IFN-γ+ T cells, PPD+ donors compared with PBS-treated group [4]: more CD8^+ IFN-γ^+ T cells than the PBS-treated group; CD8+ IFN-γ+ T cells, PPD+ donors compared with PPD− donors [4]: significantly more CD8^+ IFN-γ^+ T cells; serum IFN-γ concentration (ELISA), CFA preimmunization ([5]; CFA 200 μL s.c. day -14, then peptide 100 μg/mice + T helper epitope 140 μg/mice in IFA days 0, 5, 10): 1817.0 pg/mL; serum IFN-γ concentration (ELISA), IFA ([5]; peptide 100 μg/mice + T helper epitope 140 μg/mice in IFA 1 : 1, s.c. base of tail, days 0, 5, 10): 363 pg/mL; IFN-γ secretion of peptide-induced CTLs (ELISPOT) [6]: secreted IFN-γ most potently; lysis rate, CFA preimmunization, E : T 40 : 1 [7, 9]: 24.6%; lysis rate, CFA preimmunization, E : T 80 : 1 [7, 9]: 41.2%; lysis rate, IFA, E : T 80 : 1 ([7]; IFA immunization): 26.4%; CD8+ IFN-γ+ T cells compared with NS group, CFA preimmunization [8, 9]: produced more CD8^+ IFN-γ^+ T cells than the NS group; CD8+ IFN-γ+ T cells compared with NS group, IFA ([8]; IFA immunization): induced more CD8^+IFN-γ^+ T cells than the NS group |
| GLDPLMENV [Rv1218c-p165, predicted HLA-A2-restricted 9-mer peptide … from MTB efflux pump antigen Rv1218c] | 2.6 | 479 | > 2 h | – |
| ILIGETIKI [COX-2-p321, reference compound] | 2.11 | 408 | >4 h | – |
| LLDEPSSGL [Rv1218c-p158, predicted HLA-A2-restricted 9-mer peptide … from MTB efflux pump antigen Rv1218c] | 2.35 | 439 | >4 h | CD8+ IFN-γ+ T cells, PPD+ donors compared with PPD− donors [4]: significantly more CD8^+ IFN-γ^+ T cells; IFN-γ secretion of peptide-induced CTLs (ELISPOT) [6]: secreted IFN-γ most potently |
| LLDEPTSAL [Rv0933-p186, predicted HLA-A2-restricted 9-mer peptide … from MTB efflux pump antigen Rv0933] | 2.52 | 465 | <2 h | – |
| LLLSKPDLL [Rv2477c-p173, predicted HLA-A2-restricted 9-mer peptide … from MTB efflux pump antigen Rv2477c] | 1.15 | 272 | – | – |
| LMMPQTVTV [Rv2994-p223, predicted HLA-A2-restricted 9-mer peptide … from MTB efflux pump antigen Rv2994] | 2.28 | 430 | <2 h | – |
| RLGNVVVEV [Rv2477c-p316, predicted HLA-A2-restricted 9-mer peptide … from MTB efflux pump antigen Rv2477c] | 1.58 | 348 | >2 h | – |
| RLTEELAWV [Rv2477c-p265, predicted HLA-A2-restricted 9-mer peptide … from MTB efflux pump antigen Rv2477c] | 1.36 | 315 | – | – |
| SLADRLTVI [Rv0933-p208, predicted HLA-A2-restricted 9-mer peptide … from MTB efflux pump antigen Rv0933] | 2.59 | 479 | <2 h | – |
| SLVSQPPTL [Rv1218c-p280, predicted HLA-A2-restricted 9-mer peptide … from MTB efflux pump antigen Rv1218c] | 1.62 | 353 | <2 h | – |
| TLFKTIVGL [Rv2477c-p362, predicted HLA-A2-restricted 9-mer peptide … from MTB efflux pump antigen Rv2477c] | 1.72 | 367 | > 2 h | – |
| VLAADAVFV [Rv2459c-p469, predicted HLA-A2-restricted 9-mer peptide … from MTB efflux pump antigen Rv2459c] | 2.36 | 440 | >4 h | CD8+ IFN-γ+ T cells, PPD+ donors compared with PBS-treated group [4]: more CD8^+ IFN-γ^+ T cells than the PBS-treated group; CD8+ IFN-γ+ T cells, PPD+ donors compared with PPD− donors [4]: significantly more CD8^+ IFN-γ^+ T cells; IFN-γ secretion of peptide-induced CTLs (ELISPOT) [6]: secreted IFN-γ most potently |
| VLATGVTLV [Rv2209-p158, predicted HLA-A2-restricted 9-mer peptide … from MTB efflux pump antigen Rv2209] | 2.54 | 462 | >4 h | – |
| WMSIGVFSV [Rv1819c-p122, predicted HLA-A2-restricted 9-mer peptide … from MTB efflux pump antigen Rv1819c] | 0.35 | 177 | – | – |
| YLLGGTVVV [Rv1877-p71, predicted HLA-A2-restricted 9-mer peptide … from MTB efflux pump antigen Rv1877] | 2.17 | 419 | >2 h | – |
